# PubChem BioAssay AID1963973 (Molecular Pharmacology Branch, DTP, NCI, 2024)
# pIC50: −log10 of the molar value.
# System: 883617-216-R-J1-PDC tumor spheroids, viability
# Assay: Anticancer human tumor 883617-216-R-J1-PDC patient-derived bladder carcinoma cell line growth inhibition [PI3K]
# Conditions: spheroids with HUVEC and MSC; for pIC50: curve of first compound; for viability, T/C: stronger effect = lower value
# Excerpt: Combinatorial screen of targeted agents with the PI3K inhibitors inavolisib, alpelisib, duvelisib, and copanlisib in multi-cell type tumor spheroids
# A high-throughput screen of multi-cell type tumor spheroids was designed to identify active combinations of targeted small molecules and PI3K pathway inhibitors. Complex spheroids include a stromal component modeled by human endothelial cells (HUVEC) and fibroblasts modeled by human mesenchymal stem cells (MSCs). The concentration ranges selected for each drug and investigational agent were based upon clinically achievable concentrations if the clinical Cmax of the agent was known.
# Compounds. The drugs and investigational agents: inavolisib (NSC800729), alpelisib (NSC765974), duvelisib (NSC772469), copanlisib (NSC816437), ipatasertib (NSC767898), afuresertib (NSC778305), talazoparib (NSC767125), sapanisertib (NSC764658), selumetinib (NSC741078), tovorafenib (DAY101, NSC766906), vemurafenib (NSC761431), ravoxertinib (NSC781343), sotorasib (NSC818433), MRTX1133 (NSC 836407), abemaciclib (NSC 768073), palbociclib (NSC758247), venetoclax (NSC 766270), SY5609 (NSC837396), enzalutamide (NSC755605), and darolutamide (NSC825331), were obtained from the National Cancer Institute (NCI) Developmental Therapeutics Program Chemical Repository. The FDA-approved anticancer drug set is available from the NCI Developmental Therapeutics Program. […] The stock solutions were prepared in dimethyl sulfoxide (DMSO, Sigma-Aldrich, St. Louis, MO, cat. D2650) at 800-fold the tested concentration and stored at -70 degrees C prior to their use. All drugs and investigational agents were tested over a range starting from a high concentration at or near the clinical Cmax and decreasing in half-log increments. If the clinical Cmax for an agent had not been determined, the highest concentration tested was 10 microM.
# Cell Culture. All cells were maintained in an incubator at 37 degrees C and 5% CO2 with 95% humidity. The PDC lines were cultured according to standard operating procedures established by the NCI PDMR (https://pdmr.cancer.gov/sops/default.htm). All PDCs were thawed and cultured in Matrigel-coated flasks prepared with a working solution of 1X Ham's F-12 nutrient mix, without supplementation (Invitrogen, Waltham, MA, cat. 11765054), 100 U/mL penicillin-streptomycin (Invitrogen, cat. 15140122), and 2.5% Matrigel (Corning Inc., Corning, NY, cat. 354248) for the first three passages. The 354836-022-R-J1-PDC, 475296-252-R-J1-PDC, and 997726-040-R-J2-PDC lines were cultured in 6A media, which includes advanced DMEM/F-12 (Thermo Fisher Scientific, cat. 12634028), 10 mM HEPES (Thermo Fisher Scientific, cat. 15630080), 1X GlutaMAX supplement (Thermo Fisher Scientific, cat. 35050061), 0.1 mg/mL primocin (InvivoGen, San Diego, CA, cat. ant-pm-2), 10% defined fetal bovine serum, heat inactivated (HyClone Laboratories Inc., Logan, UT, cat. SH30070.03HI), 50% L-WRN conditioned media (ATCC, cat. CRL-3276), 1.25 mM N-Acetyl-L-cysteine (Sigma-Aldrich, cat. A9165), 10 mM nicotinamide (Sigma-Aldrich, cat. N0636), 1X B-27 supplement (Thermo Fisher Scientific, cat. 17504044), 1X N-2 supplement (Thermo Fisher Scientific, cat. 17502048), and 10 microM Y-27632 dihydrochloride (Tocris Bioscience, Bristol, United Kingdom, cat. 1254). The 624824-186-R-J2-PDC line was cultured in 6C/Colon 1B media, which includes all 6A media components plus 50 ng/mL human EGF recombinant protein (Thermo Fisher Scientific, cat. PHG0311). […]
# 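Also: spheroids exposed to agents for 7 days before the viability read.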
smiles,measurement,setting,value
C=CC(=O)N1CCN(c2nc(=O)n(-c3c(C)ccnc3C(C)C)c3nc(-c4c(O)cccc4F)c(F)cc23)C(C)C1 (configuration not stated) + CC(Nc1ccc2c(c1)OCCn1cc(N3C(=O)OCC3C(F)F)nc1-2)C(N)=O,pIC50,second compound 0.00316 µM,< 5.00
same,pIC50,second compound 0.01 µM,7.50
same,pIC50,second compound 0.0316 µM,> 7.50
same,pIC50,second compound 0.1 µM,> 7.50
same,pIC50,second compound 0.316 µM,> 7.50
same,pIC50,second compound 1 µM,> 7.50
same,"viability, T/C","second compound 0.00316 µM, first compound 0.0316 µM",59%
same,"viability, T/C","second compound 0.00316 µM, first compound 0.1 µM",49.2%
same,"viability, T/C","second compound 0.00316 µM, first compound 0.316 µM",52.5%
same,"viability, T/C","second compound 0.00316 µM, first compound 1 µM",70.5%
same,"viability, T/C","second compound 0.00316 µM, first compound 3.16 µM",70.8%
same,"viability, T/C","second compound 0.00316 µM, first compound 10 µM",56.5%
same,"viability, T/C","second compound 0.01 µM, first compound 0.0316 µM",57.8%
same,"viability, T/C","second compound 0.01 µM, first compound 0.1 µM",51.8%
same,"viability, T/C","second compound 0.01 µM, first compound 0.316 µM",47.7%
same,"viability, T/C","second compound 0.01 µM, first compound 1 µM",44.5%
same,"viability, T/C","second compound 0.01 µM, first compound 3.16 µM",56.5%
same,"viability, T/C","second compound 0.01 µM, first compound 10 µM",61.1%
same,"viability, T/C","second compound 0.0316 µM, first compound 0.0316 µM",45%
same,"viability, T/C","second compound 0.0316 µM, first compound 0.1 µM",38.2%
same,"viability, T/C","second compound 0.0316 µM, first compound 0.316 µM",30.8%
same,"viability, T/C","second compound 0.0316 µM, first compound 1 µM",40.9%
same,"viability, T/C","second compound 0.0316 µM, first compound 3.16 µM",42.6%
same,"viability, T/C","second compound 0.0316 µM, first compound 10 µM",49.7%
same,"viability, T/C","second compound 0.1 µM, first compound 0.0316 µM",25.3%
same,"viability, T/C","second compound 0.1 µM, first compound 0.1 µM",21.6%
same,"viability, T/C","second compound 0.1 µM, first compound 0.316 µM",19.3%
same,"viability, T/C","second compound 0.1 µM, first compound 1 µM",25.7%
same,"viability, T/C","second compound 0.1 µM, first compound 3.16 µM",30.4%
same,"viability, T/C","second compound 0.1 µM, first compound 10 µM",25.3%
same,"viability, T/C","second compound 0.316 µM, first compound 0.0316 µM",13.5%
same,"viability, T/C","second compound 0.316 µM, first compound 0.1 µM",13.4%
same,"viability, T/C","second compound 0.316 µM, first compound 0.316 µM",11%
same,"viability, T/C","second compound 0.316 µM, first compound 1 µM",14.6%
same,"viability, T/C","second compound 0.316 µM, first compound 3.16 µM",15.5%
same,"viability, T/C","second compound 0.316 µM, first compound 10 µM",17.3%
same,"viability, T/C","second compound 1 µM, first compound 0.0316 µM",10.3%
same,"viability, T/C","second compound 1 µM, first compound 0.1 µM",9.98%
same,"viability, T/C","second compound 1 µM, first compound 0.316 µM",7.7%
same,"viability, T/C","second compound 1 µM, first compound 1 µM",7.88%
same,"viability, T/C","second compound 1 µM, first compound 3.16 µM",12.1%
same,"viability, T/C","second compound 1 µM, first compound 10 µM",9.67%
